Laboratory results: article PMC4899770, “Core-shell nanocarriers with high paclitaxel loading for passive and active targeting” (Scientific Reports, 2016)

Conditions: rat, in vivo, iv, 10 mg/kg
Procedure: Blood samples (0.5 mL) were collected from rat orbit at the time points of 0.083, 0.25, 0.5, 1, 2, 4, 6 and 8 h. The blood samples were centrifuged for 10 min at 5,000 rpm in a desktop centrifuge (Anke TGL-16G, Shanghai, China), and the plasma was separated and transferred to microcentrifuge tubes. The PTX in plasma was measured using an HPLC system after extraction with ethylether and redissolved in methanol. The pharmacokinetic parameters of PTX were calculated using a non-compartmental model with Kinetica 5.0 (Thermo Fisher Scientific Inc., MA, USA).
Two hundred microliter of plasma samples were mixed with 10 µL of internal standard (100 ng/mL diazepam in methanol), followed by vortexing for 60 s. Following mixing into 800 µL of ethylether, the sample was vortexed for 2 min and centrifuged at 12,700 g for 10 min. Subsequently, the supernatant was collected and dried under a stream of nitrogen. The residual was redisolved in 100 µL of mobile phase, votexed for 3 min and centrifuged at 10,625 g for 5 min^7. Finally, 20 µL of the supernatant was injected into the HPLC system for analysis under the conditions described below.
PTX measurement was performed on a LC-10AT HPLC system (Shimadzu, Japan). It was separated at 30 °C using an ODS-C18 column (4.6 mm × 250 mm, Diamonsil, China). The samples were eluted with acetonitrile and water (54: 46, v/v) at the flow rate of 1.0 mL/min and monitored at 227 nm^8.

Substance: Taxol^®
- AUC0-∞: 4.38 ± 3.57 mg·h/L
- CL: 1.68 ± 1.19 L/h
- MRT: 1.78 ± 0.88 h
- k (elimination rate constant): 2.99 ± 2.88 h⁻¹
